The target in one test is T1, human hemoglobin (HbA) (Homo sapiens, UniProt P69905).
T1 construct: hemoglobin solution
The test can be described thus: Oxygen equilibrium studies of hemoglobin solutions (Hem-O-Scan oxygen dissociation curves). To be noted: hemoglobin solution; for P50 D (aver.) / ΔP50 (P50 D - P50 C): Hb 2.7 mM; for P50 D (aver.): compound 10 mM (approx. 4:1), 50 mM HEPES pH 7.4, incubated at 4° C. for two hours; for ΔP50 (P50 D - P50 C): compound 10 mM, 50 mM HEPES pH 7.4, positive = right shift. The format is biochemical. The text has this:
In blood, hemoglobin is in equilibrium between two allosteric structures. In the "T" (for tense) state, hemoglobin is de-oxygenated. In the "R" (for relaxed) state, hemoglobin is oxygenated. An oxygen equilibrium curve can be scanned using well known equipment such as the Aminco™ Hem-o-scan to evaluate the affinity and degree of cooperativity (allosteric action) of hemoglobin. In the scan, the Y-axis plots the percent of hemoglobin oxygenation and the X-axis plots the partial pressure of oxygen in millimeters of mercury (mm Hg). If a horizontal line is drawn from the 50% oxygen saturation point to the scanned curve and a vertical line is drawn from the intersection point of the horizontal line with the curve to the partial pressure X-axis, a value commonly known as the P50 is determined. This is the pressure when the hemoglobin is 50% saturated with oxygen. By comparing the P50 value for treated hemoglobin to the P50 value for untreated normal adult human hemoglobin (HbA) under physiological conditions (i.e., 37° C., pH=7.4, and partial carbon dioxide pressure of 40 mm Hg), the degree of allosteric modification can be determined. When the P50 value for treated hemoglobin is lower than for HbA, a high oxygen affinity hemoglobin is indicated and the curve is said to be "left-shifted". Conversely, when the P50 value for treated hemoglobin is higher than for HbA, a low oxygen affinity hemoglobin is indicated and the curve is said to be "right-shifted".
In the oxygen equilibrium studies, the HbA was further purified by dialysis against pH 8.6. Tris buffer (50 mM, containing 40 mg EDTA/L) to remove any residual A2 hemoglobin. The pure HbA fraction was concentrated by using a Schleicher and Schuell colloidion bag apparatus, available from Schleicher and Schuell, Inc., with HEPES buffer (50 mM, pH 7.4) as the exchange buffer. The Hb concentration was determined by using the cyanmet method. The Hb concentration at this point was usually found to be around 35 g% (approximately 5.4 mM). Less than 5% methemoglobin was noted even after several days at 4° C. Oxygen dissociation curves were recorded on an AMINCO Hem-0-Scan oxygen dissociation analyzer available from Travenol Laboratories.
All compounds were dissolved in 50 mM HEPES buffer, pH 7.4, to give 20 mM of drug solution. The Hb (5.4 mM, in HEPES, pH 7.4) and the test compounds (20 mM) were mixed in 1:1 volume ratio (50μL of Hb+50μL of compound solution) to give final concentrations of 2.7 mM and 10mM, respectively (a molar ratio of test compound to hemoglobin of approximately 4:1). A control experiment was prepared by the addition of 50 μL of Hb to 50 μL of HEPES buffer. The mixtures were incubated at 4° C. for two hours before running the oxygen dissociation curves.

The test system of the next test is whole blood. Briefly: Whole-blood studies: effect on the oxygen affinity of whole blood. Format: cell-based.
The next test deals with T2, HbA (Homo sapiens, UniProt P69905).
T2 construct: co-crystals with compounds
The test can be described thus: X-ray diffraction analysis of HbA/drug complexes (difference electron-density maps). Format: binding. Particulars: HbA tetramer/drug molar ratio 1:5 (TB17 1:10), Schiff base reduced, deoxygenated crystals. On the procedure:
Reaction of the drug compounds with HbA, crystallization and X-ray data collection of the HbA/drug complexes were performed according to the procedures of Wireko et al., Proc. Natl. Acad. Sci. USA, 1991, 88, 2209, which is herein incorporated by reference, with some slight modifications. Freshly prepared solutions of the synthesized compounds in potassium phosphate buffer were incubated at oxy HbA tetramer/drug molar ratios of 1:5 or 1:10 for at least 24 hours. Sodium cyanoborohydrie in phosphate buffer was added in 10- to 50-fold molar excess of HbA tetramer to reduce the Schiff's base adduct for at least 24 hours. The deoxygenated HbA/compound complexes were set up for crystallizations following the procedures described in Perutz et al., Crys. Growth, 1968, 2, 54, which is herein incorporated by reference, with some slight modifications. X-ray quality crystals for all complexes were obtained after three to seven days. Crystals of TB19 (discussed below) grown with HbA incubated and reduced under deoxygenated conditions was also used for data collection.
X-ray diffraction data for the MS2 complex (discussed below) was collected using a Rigaku AFC5R rotating anode diffractometer to a resolution of 4Å. All hk±1 reflections and their Friedel pairs were collected. One crystal, dimensions 0.3 to 1.2 mm was used for collection. Diffraction data for the rest of the complexes were collected with a Rigaku AFC5R rotating anode diffractometer equipped with an R-axis IIC image plate system, all to a resolution of 1.94A. Crystals of linear dimensions 0.2 to 0.5 mm were used. Data reduction, structure solution and calculation of Fourier difference electron-density maps were as described in Wireko et al., Proc. Natl. Acad. Sci. USA, 1991, 88, 2209.
Models of the compounds created with MMOD and minimized with MM2 force field were fitted to the electron-density by using FRODO on an EVANS and SUTHERLAND PS390 graphic station.
X-ray diffraction analyses were used to study several of the new drug complexes including MS1, MS2, TB8, TB10, TB17, TB19, TB32, TB36, TB62, and TB63. The difference electron-density maps of all complexes discussed are that of the HbA tetramer/drug molar ratio of 1:5, except TB17 which is 1:10. All drug molecules contain at least two functionalities, an aldehyde and a carboxylate, common to all of them. […] The only exception was MS2 where only one of the carboxylate oxygens was involved in the salt bridge interaction. The above binding site, which is common to all of the complexes, will be referred to as the α-cleft binding site. Some of the above drug compounds have additional functional groups which are also involved in additional interaction with other HbA residues, including hydrogen bonding, van der Waals interaction, and a second covalent bonding.
All complexes have two molecules of the drug compounds bound at the above-mentioned α-cleft site and are related by the two fold noncrystallographic axis. These sites are further noted as the α1-cleft site (Val-1α1 binding site), and the α2-cleft site (Val-1α2 binding site). In all complexes, the electron density at the α2-cleft site were slightly bigger and better defined than the electron density at the α1-cleft site. In addition to the binding at the α-cleft site, some of the drug compounds also bind to other secondary sites, including other sites in the α-cleft water cavity, the β-cleft water cavity located at Val-1β, and the Hb polymer contact site located near the residues His-116β and His-117β.

With `O=Cc1ccc(OCC=CCOc2ccc(C=O)cc2C(=O)O)c(C(=O)O)c1` [TB18, 1,4-bis(2-carboxy-4-formylphenoxy)-2-butene], on human hemoglobin (HbA), the “direction of shift of the oxygen equilibrium curve” value is on record as “right shift”, the “P50 D (aver.)” value is 40.0 mm Hg and the “ΔP50 (P50 D - P50 C)” value was 18.0 mm Hg. For the same compound, the “P50 D (aver.)” value in the test on whole blood (heparinized whole blood mixed 1:1 with test compound solution, equilibrated 1 hour at 37° C., P50 C 25.0) turned out to be 19.0 mm Hg. Also, the “direction of shift of the oxygen equilibrium curve” value with whole blood (whole blood) is on record as “left shift”. The “ΔP50 D” value in the test on whole blood (whole blood, 1 hour at 37° C., P50 D - P50 C) is on record as -6.0 mm Hg.

Take `O=Cc1ccc(OCc2ccc(COc3ccc(C=O)cc3C(=O)O)cc2)c(C(=O)O)c1` [TB11, α,α'bis(2-carboxy-4-formylphenoxy)-p-xylene]: at human hemoglobin (HbA), the “P50 D (aver.)” value turned out to be 24.0 mm Hg and the “ΔP50 (P50 D - P50 C)” value turned out to be 2.5 mm Hg.

Take `O=Cc1ccc(OCCCCCCOc2ccc(C=O)cc2C(=O)O)c(C(=O)O)c1` [TB42, 1,6-bis(2-carboxy-4-formylphenoxy)-hexane]: on human hemoglobin (HbA), the “P50 D (aver.)” value was 39.0 mm Hg and the “ΔP50 (P50 D - P50 C)” value is reported as 17.0 mm Hg.

Turning to `O=Cc1ccc(OCCCCCCCCOc2ccc(C=O)cc2C(=O)O)c(C(=O)O)c1` [TB58, 1,8-bis(2-carboxy-4-formylphenoxy)-octane], at human hemoglobin (HbA), the “P50 D (aver.)” value came out at 37.0 mm Hg and the “ΔP50 (P50 D - P50 C)” value is recorded as 15.0 mm Hg.

`O=Cc1ccc(OCCCCOc2ccc(C(=O)O)cc2)c(C(=O)O)c1` [TB35]: at human hemoglobin (HbA), the “P50 D (aver.)” value is on record as 25 mm Hg and the “ΔP50 (P50 D - P50 C)” value was 4 mm Hg.

`O=Cc1ccc(OC(=O)CCC(=O)Oc2ccc(C=O)cc2C(=O)O)c(C(=O)O)c1` [TB80, bis(2-carboxy-4-formylphenyl)-succinate]: at human hemoglobin (HbA), the “P50 D (aver.)” value was found to be 14.5 mm Hg and the “ΔP50 (P50 D - P50 C)” value is recorded as -5.5 mm Hg.

As to `CC(CCCOc1ccc(C=O)cc1C(=O)O)Oc1ccc(C=O)cc1C(=O)O` (stereo not drawn) [TB72, 1,4-bis(2-carboxy-4-formylphenoxy)-pentane], on human hemoglobin (HbA), the “P50 D (aver.)” value was 30.0 mm Hg and the “ΔP50 (P50 D - P50 C)” value was determined as 8.0 mm Hg.

`O=Cc1ccc(OC(=O)c2ccc(C(=O)Oc3ccc(C=O)cc3C(=O)O)cc2)c(C(=O)O)c1` [TB56, bis(2-carboxy-4-formylphenyl)-terephthalate]: on human hemoglobin (HbA), the “P50 D (aver.)” value is 16.0 mm Hg and the “ΔP50 (P50 D - P50 C)” value is -4.0 mm Hg.

Regarding `O=Cc1ccc(OCc2ccc(C(=O)O)cc2)c(C(=O)O)c1` [TB34, α-(2-carboxy-4-formylphenoxy)-p-toluic acid], on human hemoglobin (HbA), the “P50 D (aver.)” value is recorded as 14.0 mm Hg and the “ΔP50 (P50 D - P50 C)” value is -6.0 mm Hg.

In the case of `O=Cc1ccc(OCCOc2ccc(C=O)cc2C(=O)O)c(C(=O)O)c1` [TB63/41, 1,2-Bis(2-Carboxy-4-formylphenoxy)-ethane], at human hemoglobin (HbA), the “P50 D (aver.)” value was 46.0 mm Hg and the “ΔP50 (P50 D - P50 C)” value is 24.0 mm Hg. Moreover, on HbA, the “binding sites in HbA seen in the difference electron-density map” value is listed as “binding exclusively at the two symmetry-related α-cleft sites”.

`O=Cc1ccc(OCc2cccc(COc3ccc(C=O)cc3C(=O)O)c2)c(C(=O)O)c1` [TB10, α,α'bis(2-carboxy-4-formylphenoxy)-m-xylene]: at human hemoglobin (HbA), the “P50 D (aver.)” value was 26.0 mm Hg and the “ΔP50 (P50 D - P50 C)” value is reported as 4.5 mm Hg.

Turning to `O=Cc1ccc(OCCCOc2ccc(C=O)cc2C(=O)O)c(C(=O)O)c1` [TB36, 1,3-bis(2-carboxy-4-formylphenoxy)-propane], at human hemoglobin (HbA), the “P50 D (aver.)” value is 44.0 mm Hg and the “ΔP50 (P50 D - P50 C)” value was 22.0 mm Hg. Moreover, the “binding sites in HbA seen in the difference electron-density map” value at HbA is “binding exclusively at the two symmetry-related α-cleft sites”.

Take `O=Cc1ccc(O)c(C(=O)O)c1` [MS1, 5-formylsalicyclic acid]: on human hemoglobin (HbA), the “P50 D (aver.)” value is on record as 21.0 mm Hg and the “ΔP50 (P50 D - P50 C)” value turned out to be 1.0 mm Hg. At HbA, the “binding sites in HbA seen in the difference electron-density map” value is listed as “four binding sites for MS1 in the central water cavity of HbA”.

For the compound `O=Cc1ccc(C(=O)O)cc1` [MS2, 4-carboxybenzaldehyde], on human hemoglobin (HbA), the “P50 D (aver.)” value stood at 21.0 mm Hg and the “ΔP50 (P50 D - P50 C)” value was 2.0 mm Hg. For the same compound, on HbA, the “binding sites in HbA seen in the difference electron-density map” value was “binding exclusively at the two symmetry-related α-cleft sites”.

With `O=Cc1ccc(OCCCCCOc2ccc(C=O)cc2C(=O)O)c(C(=O)O)c1` [TB57, 1,5-bis(2-carboxy-4-formylphenoxy)-pentane], on human hemoglobin (HbA), the “P50 D (aver.)” value stood at 33.0 mm Hg and the “ΔP50 (P50 D - P50 C)” value is 11.0 mm Hg.

On to `CC(=O)Oc1ccc(C=O)cc1C(=O)O` [TB8, 5-formylaspirin], for which, on human hemoglobin (HbA), the “P50 D (aver.)” value stood at 21.0 mm Hg and the “ΔP50 (P50 D - P50 C)” value is -1.0 mm Hg. The “binding sites in HbA seen in the difference electron-density map” value at HbA is reported as “binding of TB8 at the two symmetry-related α-cleft sites of Val-1α”.

For the compound `O=Cc1ccc(OC(=O)C(=O)Oc2ccc(C=O)cc2C(=O)O)c(C(=O)O)c1` [TB77, bis(2-carboxy-4-formylphenyl)-oxalate], on human hemoglobin (HbA), the “P50 D (aver.)” value was found to be 19.5 mm Hg and the “ΔP50 (P50 D - P50 C)” value was -1.5 mm Hg.

As to `O=Cc1ccc(OCCCCCCCCCCOc2ccc(C=O)cc2C(=O)O)c(C(=O)O)c1` [TB73, 1,10-bis(2-carboxy-4-formylphenoxy)-decane], at human hemoglobin (HbA), the “P50 D (aver.)” value amounted to 33.0 mm Hg and the “ΔP50 (P50 D - P50 C)” value came to 11.0 mm Hg.

Regarding `O=Cc1ccc(OC(=O)/C=C/C(=O)Oc2ccc(C=O)cc2C(=O)O)c(C(=O)O)c1` [TB40, bis(2-carboxy-4-formylphenyl)-fumerate], at human hemoglobin (HbA), the “P50 D (aver.)” value was determined as 14.0 mm Hg and the “ΔP50 (P50 D - P50 C)” value was -6.0 mm Hg.

`O=Cc1ccc(OCc2ccccc2COc2ccc(C=O)cc2C(=O)O)c(C(=O)O)c1` [TB5, α, α'-bis(2-carboxy-4-formylphenoxy)-o-xylene]: on human hemoglobin (HbA), the “P50 D (aver.)” value stood at 31.0 mm Hg and the “ΔP50 (P50 D - P50 C)” value is reported as 9.5 mm Hg.

Take “2-phenylethyloxy-5-formylbenzoic acid [TB32]”: at human hemoglobin (HbA), the “P50 D (aver.)” value stood at 18.0 mm Hg and the “ΔP50 (P50 D - P50 C)” value is listed as -2.0 mm Hg.

These data come from patent US5599974A, “Aldehydic agents for allosteric modification of hemoglobin” (Center for Innovative Technology, priority 1994, dated 1997).
